Format in all cases: cell-based
Test [1] concerns Haemophilus influenzae 1218. The test is described as follows: MIC, microtiter broth dilution (NCCLS M100-S14), H. influenzae 1218 (susceptible). The conditions noted are these: Haemophilus influenzae 1218. The procedure:
(§1) The assay described herein includes a panel of bacterial strains assembled to include a variety of target pathogenic species, including representatives of macrolide resistance mechanisms that have been characterized. In many cases, both the macrolide-susceptible parent strain and the macrolide-resistant strain derived from it are available to provide a more accurate assessment of the compound's ability to circumvent the resistance mechanism. The assay is performed in microtiter trays and interpreted according to Performance Standards for Antimicrobial Susceptibility Testing; 14th Informational Supplement (M100-S14), published by The National Committee for Clinical Laboratory Standards (NCCLS) guidelines; the MIC is used to compare strains. Compounds are initially dissolved in DMSO as 40 mg/ml stock solutions.
On the technique in general: In broth dilution the organism is exposed to a series of concentrations in liquid medium.

Test [2] deals with Streptococcus pyogenes 1079. The test is described as follows: MIC, microtiter broth dilution (NCCLS M100-S14), S. pyogenes 1079 (ermB). The settings on record: Streptococcus pyogenes 1079. The procedure:
as §1

The subject of test [3] is Streptococcus pneumoniae 1016. The experiment in a line: MIC, microtiter broth dilution (NCCLS M100-S14), S. pneumoniae 1016 (susceptible). The settings on record: Streptococcus pneumoniae 1016. As to the method:
as §1

Test [4] relates to Streptococcus pneumoniae 1175. The settings on record: Streptococcus pneumoniae 1175; microtiter broth dilution. The procedure: as §1
The test system of test [5] is Streptococcus pneumoniae 1095. The conditions noted are these: Streptococcus pneumoniae 1095; microtiter broth dilution. The procedure:
as §1

Converted amounts (≈) assume the structure as drawn.

Regarding `CCC1OC(=O)C(C)C(=O)C(C)C(OC2OC(C)CC(N(C)C)C2O)C(C)(OC)CC(C)C(=O)C(C)C2N(CC3CN(C(=O)c4cccnc4)C3)C(=O)OC12C` (centres unmarked) [4.03], the “MIC H. influenzae 1218” value in test [1] was 1.56 µg/mL (≈ 1.98 µM). For the same molecule, the “MIC S. pyogenes 1079” value in test [2] is above 100.00 µg/mL. Also, the “MIC S. pneumo. 1016” value in test [3] amounted to 0.02 µg/mL (≈ 0.0254 µM). For the same molecule, the “MIC S. pneumo. 1175” value in test [4] worked out at 0.78 µg/mL (≈ 0.991 µM). Moreover, the “MIC S. pneumo. 1095” value in test [5] was found to be 0.39 µg/mL (≈ 0.496 µM).
The corresponding values for `CCC1OC(=O)C(C)C(=O)C(C)C(OC2OC(C)CC(N(C)C)C2O)C(C)(OC)CC(C)C(=O)C(C)C2N(CC3CN(Cc4cccnc4)C3)C(=O)OC12C` (centres unmarked) [4.04] are 0.5 µg/mL (≈ 0.647 µM), above 64.00 µg/mL, below 0.06 µg/mL, 0.25 µg/mL (≈ 0.323 µM) and 16 µg/mL (≈ 20.7 µM).
On the same counts, the results for `CCC1OC(=O)C(C)C(=O)C(C)C(OC2OC(C)CC(N(C)C)C2O)C(C)(OC)CC(C)C(=O)C(C)C2N(CC3CN(C(=O)c4ccncc4)C3)C(=O)OC12C` (centres unmarked) [4.05] are 4 µg/mL (≈ 5.08 µM), above 64.00 µg/mL, 0.02 µg/mL (≈ 0.0254 µM), 1 µg/mL (≈ 1.27 µM) and 2 µg/mL (≈ 2.54 µM).
The corresponding values for `CCC1OC(=O)C(C)C(=O)C(C)C(OC2OC(C)CC(N(C)C)C2O)C(C)(OC)CC(C)C(=O)C(C)C2N(CC3CN(C(=O)c4cccc(C#N)c4)C3)C(=O)OC12C` (centres unmarked) [4.06] are 3.12 µg/mL (≈ 3.85 µM), above 100.00 µg/mL, 0.02 µg/mL (≈ 0.0247 µM), 0.39 µg/mL (≈ 0.481 µM) and 12.5 µg/mL (≈ 15.4 µM).
For `CCC1OC(=O)C(C)C(=O)C(C)C(OC2OC(C)CC(N(C)C)C2O)C(C)(OC)CC(C)C(=O)C(C)C2N(CC3CN(S(=O)(=O)c4cccc(C#N)c4)C3)C(=O)OC12C` (centres unmarked) [4.07], the “MIC H. influenzae 1218” value in test [1] stood at 1 µg/mL (≈ 1.18 µM). In addition, in test [2], the “MIC S. pyogenes 1079” value is above 64.00 µg/mL. The “MIC S. pneumo. 1016” value in test [3] was below 0.06 µg/mL. Besides, the “MIC S. pneumo. 1175” value in test [4] is 0.19 µg/mL (≈ 0.224 µM). Also, the “MIC S. pneumo. 1095” value in test [5] was determined as 24 µg/mL (≈ 28.3 µM).
On the same counts, the results for `CCC1OC(=O)C(C)C(=O)C(C)C(OC2OC(C)CC(N(C)C)C2O)C(C)(OC)CC(C)C(=O)C(C)C2N(CC3CN(Cc4cccc(C#N)c4)C3)C(=O)OC12C` (centres unmarked) [4.08] are 0.12 µg/mL (≈ 0.151 µM), above 64.00 µg/mL, below 0.06 µg/mL, below 0.06 µg/mL and 32 µg/mL (≈ 40.2 µM).
For `CCC1OC(=O)C(C)C(=O)C(C)C(OC2OC(C)CC(N(C)C)C2O)C(C)(OC)CC(C)C(=O)C(C)C2N(CC3CN(Cc4ccn[nH]4)C3)C(=O)OC12C` (centres unmarked) [4.09], in test [1], the “MIC H. influenzae 1218” value turned out to be 0.12 µg/mL (≈ 0.157 µM). The “MIC S. pyogenes 1079” value in test [2] was above 64.00 µg/mL. The “MIC S. pneumo. 1016” value in test [3] is below 0.06 µg/mL. Besides, the “MIC S. pneumo. 1175” value in test [4] came to 0.5 µg/mL (≈ 0.656 µM). Besides, the “MIC S. pneumo. 1095” value in test [5] came to 32 µg/mL (≈ 42 µM).
On the same counts, the results for `CCC1OC(=O)C(C)C(=O)C(C)C(OC2OC(C)CC(N(C)C)C2O)C(C)(OC)CC(C)C(=O)C(C)C2N(CC3CN(Cc4cnc5ccccc5c4)C3)C(=O)OC12C` (centres unmarked) [4.10] are below 0.06 µg/mL, 16 µg/mL (≈ 19.4 µM), below 0.06 µg/mL, below 0.06 µg/mL and 1 µg/mL (≈ 1.22 µM).
The corresponding values for `CCC1OC(=O)C(C)C(=O)C(C)C(OC2OC(C)CC(N(C)C)C2O)C(C)(OC)CC(C)C(=O)C(C)C2N(CC3CN(Cc4c[nH]c5ccccc45)C3)C(=O)OC12C` (centres unmarked) [4.11] are 1 µg/mL (≈ 1.23 µM), 64 µg/mL (≈ 78.9 µM), below 0.06 µg/mL, 2 µg/mL (≈ 2.47 µM) and 4 µg/mL (≈ 4.93 µM).
As to `CCC1OC(=O)C(C)C(=O)C(C)C(OC2OC(C)CC(N(C)C)C2O)C(C)(OC)CC(C)C(=O)C(C)C2N(CC3CN(Cc4cnc5ccccc5n4)C3)C(=O)OC12C` (centres unmarked) [4.12], the “MIC H. influenzae 1218” value in test [1] amounted to 1 µg/mL (≈ 1.21 µM). The “MIC S. pyogenes 1079” value in test [2] was found to be 64 µg/mL (≈ 77.7 µM). In addition, the “MIC S. pneumo. 1016” value in test [3] is below 0.06 µg/mL. Also, in test [4], the “MIC S. pneumo. 1175” value is 0.12 µg/mL (≈ 0.146 µM). For the same molecule, the “MIC S. pneumo. 1095” value in test [5] stood at 8 µg/mL (≈ 9.71 µM).

Source of the values: patent US7462600B2, “Macrolides” (Pfizer Inc, priority 2004, dated 2008).
